We go through nine molecules from patent US6423730B1, “Method to control termites” (Dow AgroSciences LLC, priority 1999, dated 2002).

One assay has as its system Reticulitermes. In words: AWPA E1-97 treated southern yellow pine wood block termite test. The assay is classed as in vivo. Particulars: treated southern yellow pine wood blocks, four weeks. How it is done: Compounds of Formula I were evaluated using standard evaluation methodology as prescribed by the American Wood Preservers Association Standard AWPA E1-97, incorporated herein by reference, using a species of the destructive termite, Reticulitermes.
In this test replicate containers containing damp sand and southern yellow pine wood blocks treated with the compound are used. Termites are introduced into the test container and after four weeks the containers are disassembled and the wood blocks are evaluated for termite damage. Termite mortality is also evaluated.

The next assay concerns Reticulitermes lalvipes. Nature of the assay: Treated filter pad and pine wood chip petri dish termite kill test. Format: in vivo. Particulars: 8 days after treatment, 13° C. How it is done: Subterranean worker termites, Reticulitermes lalvipes, were purchased from Carolina Biological Supply Co. The insects were stored with their shipping material, decayed wood chips and moist paper towels, in an unlit growth chamber at 13° C. for three days prior to start of the test. This delay was to acclimate the termites to the test conditions as well as to eliminate weak individuals.
The compounds tested, 100 mg each, were dissolved in 10 mL of pure ethanol (dehydrated, 200 proof) to provide a solution of 10,000 ppm. The solution was serial diluted by 10× to achieve dilutions of 1,000, 100, 10, and 1 ppm. A pure cellulose fiber filter pad was soaked with 1 mL of each test sample and placed into a Falcon petri dish (50×9 mm sterile polystyrene). In addition, a pine wood chip, approximately 12×12×4 mm was dipped into the test solution for 30 seconds and placed on the filter paper. Solvent from the treated filters and wood chips was then allowed to evaporate for 24 hours. The next day, five termites were placed on the filter pad and the upper lid of the petri plate was secured. Three replications were used for each treatment.
The termites in the petri dishes were returned to the growth chamber at 13° C. The humidity was high enough to allow for condensation on the upper plate surface, which provided water for the termites. The petri dishes were briefly removed from the chamber at 2, 4, and 8 days after treatment to count the number of live termites. Data was expressed as the percentage of control (kill) of termites.

As for `CCOP(=S)(OCC)Oc1nc(Cl)c(Cl)cc1Cl` [Comparative, chlorpyrifos, reference compound], in the assay on Reticulitermes, the “Minimum Retention Preventing Termite Attack” value was >0.160 kg/m^3.
Regarding `O=C(Nc1cc(Cl)c(Cl)c(Cl)c1)c1sc(C(F)(F)F)nc1C(F)(F)F` [Compound 4], the “Control (% kill at 8 days)” value with Reticulitermes lalvipes (dose 1 ppm) is reported as 77%; with Reticulitermes lalvipes (dose 10 ppm) it was 47%; in the assay on Reticulitermes lalvipes (dose 100 ppm), 33%; in the assay on Reticulitermes lalvipes (dose 1,000 ppm), 73%; in the assay on Reticulitermes lalvipes (dose 10,000 ppm), 100%.
Regarding `O=C(Nc1c(Br)cc(OC(F)(F)F)cc1Br)c1sc(C(F)(F)F)nc1C(F)(F)F` [Compound 5], the “Minimum Retention Preventing Termite Attack” value in the assay with Reticulitermes was 0.768 kg/m^3.
As to `O=C(Nc1ccc(Cl)c(Cl)c1Cl)c1sc(C(F)(F)F)nc1C(F)(F)F` [Compound 6], the “Control (% kill at 8 days)” value in the assay with Reticulitermes lalvipes (dose 1 ppm) worked out at 33%; in the assay with Reticulitermes lalvipes (dose 10 ppm) it was 27%; in the assay with Reticulitermes lalvipes (dose 100 ppm), 53%; with Reticulitermes lalvipes (dose 1,000 ppm) it was 100%; with Reticulitermes lalvipes (dose 10,000 ppm), 100%.
In the case of `O=C(Nc1cc(Cl)c(Cl)cc1Cl)c1sc(C(F)(F)F)nc1C(F)(F)F` [Compound 7], the “Control (% kill at 8 days)” value was determined as 73% in the assay on Reticulitermes lalvipes (dose 1 ppm); 60% in the assay on Reticulitermes lalvipes (dose 10 ppm); 87% in the assay on Reticulitermes lalvipes (dose 100 ppm); 100% in the assay with Reticulitermes lalvipes (dose 1,000 ppm); 100% in the assay with Reticulitermes lalvipes (dose 10,000 ppm).
As to `O=C(Nc1ccc(Cl)cc1Cl)c1sc(C(F)(F)F)nc1C(F)(F)F` [Compound 8], the “Control (% kill at 8 days)” value with Reticulitermes lalvipes (dose 1 ppm) was 7%; with Reticulitermes lalvipes (dose 10 ppm), 0%; in the assay on Reticulitermes lalvipes (dose 100 ppm) it was 0%; in the assay on Reticulitermes lalvipes (dose 1,000 ppm), 20%; in the assay on Reticulitermes lalvipes (dose 10,000 ppm), 100%.
For `O=C(Nc1cc(Cl)ccc1Cl)c1sc(C(F)(F)F)nc1C(F)(F)F` [Compound 9], the “Control (% kill at 8 days)” value in the assay with Reticulitermes lalvipes (dose 1 ppm) stood at 27%; with Reticulitermes lalvipes (dose 10 ppm) it was 40%; in the assay on Reticulitermes lalvipes (dose 100 ppm), 20%; with Reticulitermes lalvipes (dose 1,000 ppm) it was 53%; with Reticulitermes lalvipes (dose 10,000 ppm), 100%.
For `O=C(Nc1c(Cl)cccc1Cl)c1sc(C(F)(F)F)nc1C(F)(F)F` [Compound 10] the same measures were 7%, 0%, 0%, 67% and 73%.
On the same counts, the results for `O=C(Nc1cc(Cl)cc(Cl)c1)c1sc(C(F)(F)F)nc1C(F)(F)F` [Compound 11] are 0%, 7%, 13%, 13% and 67%.
